The molecules below were run on β-catenin-TCF-mediated reporter transcription activity in Colo 205 cells (assay: Colo 205 reporter assay (TCF/LEF luciferase)). Conditions: Homo sapiens, COLO 205, 5 h, Colo 205 TCF/LEF luciferase reporter, five hours after addition of compound; read-out: TCF reporter Colo205 IC50.
Type: cell-based
Summary of the method: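 Luciferase signal from a TCF/LEF-driven reporter, stably integrated in Colo 205 colon cancer cells, was measured 5 h after compound addition.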

IC50 [nM] | SMILES
< 300 | Cc1cc(Cn2cc(CNc3nc(C)c4c(n3)N(C)[C@@H](C)C(=O)N4)cn2)cnc1C(F)(F)F [Compound 199, (7S)-4,7,8-trimethyl-2-(((1-((5-methyl-6-(trifluoromethyl)pyridin-3-yl)methyl)-1H-pyrazol-4-yl)methyl)amino)-7,8-dihydropteridin-6(5H)-one]
< 300 | Cc1nc(N[C@H]2C[C@@H](Cn3nc(C4CC4)cc3C(F)(F)F)C2)nc2c1NC(=O)[C@H](C(C)C)N2C [Compound 581, (S)-2-((cis-3-((3-cyclopropyl-5-(trifluoromethyl)-1H-pyrazol-1-yl)methyl)cyclobutyl)amino)-7-isopropyl-4,8-dimethyl-7,8-dihydropteridin-6(5H)-one]
< 300 | Cc1nc(N[C@H]2C[C@H](Oc3cnc(C(F)(F)F)nc3)C2)nc2c1NC(=O)[C@H](C)N2C [Compound 333, (7S)-4,7,8-trimethyl-2-((trans-3-((2-(trifluoromethyl)pyrimidin-5-yl)oxy)cyclobutyl)amino)-7,8-dihydropteridin-6(5H)-one]
≥ 5000 | Cc1nc(NCc2ncn(Cc3cc(F)c(F)c(F)c3)n2)nc2c1NC(=O)[C@H](C(C)C)N2C [Compound 490, (S)-7-isopropyl-4,8-dimethyl-2-(((1-(3,4,5-trifluorobenzyl)-1H-1,2,4-triazol-3-yl)methyl)amino)-7,8-dihydropteridin-6(5H)-one]
300 to 1000 | Cc1nc(N[C@H]2CO[C@@H](COc3cc(F)c(F)c(F)c3)C2)nc2c1NC(=O)[C@H](C)N2C [Compound 309, (7S)-4,7,8-trimethyl-2-(((3R,5R)-5-((3,4,5-trifluorophenoxy)methyl)-tetrahydrofuran-3-yl)amino)-7,8-dihydropteridin-6(5H)-one]
300 to 1000 | C[C@H]1C(=O)Nc2cnc(NCc3cnn(CCCc4ccc(F)cc4)c3)nc2N1C [Compound 110, (7S)-2-(((1-(3-(4-fluorophenyl)propyl)-1H-pyrazol-4-yl)methyl)amino)-7,8-dimethyl-7,8-dihydropteridin-6(5H)-one]
< 300 | CC[C@H]1C(=O)Nc2c(C)nc(N[C@H]3C[C@@H](COc4ccc(C(F)(F)F)nc4)C3)nc2N1C [Compound 646, (S)-7-ethyl-4,8-dimethyl-2-((cis-3-(((6-(trifluoromethyl)pyridin-3-yl)oxy)methyl)cyclobutyl)amino)-7,8-dihydropteridin-6(5H)-one]
300 to 1000 | COc1ccc(O[C@H]2C[C@H](Nc3nc(C)c4c(n3)N(C)[C@@H](C)C(=O)N4)C2)cc1F [Compound 350, (7S)-2-((trans-3-(3-fluoro-4-methoxyphenoxy)cyclobutyl)amino)-4,7,8-trimethyl-7,8-dihydropteridin-6(5H)-one]
1000 to 5000 | Cc1nc(N[C@H]2C[C@@H](Nc3nc(C(F)(F)F)nn3C)C2)nc2c1NC(=O)[C@H](C(C)C)N2C [Compound 569, (S)-7-isopropyl-4,8-dimethyl-2-((cis-3-((1-methyl-3-(trifluoromethyl)-1H-1,2,4-triazol-5-yl)amino)cyclobutyl)amino)-7,8-dihydropteridin-6(5H)-one]
< 300 | Cc1nc(NCc2cnn(Cc3ccncc3C(F)(F)F)c2)nc2c1NC(=O)[C@H](C)N2C [Compound 187, (7S)-4,7,8-trimethyl-2-(((1-((3-(trifluoromethyl)pyridin-4-yl)methyl)-1H-pyrazol-4-yl)methyl)amino)-7,8-dihydropteridin-6(5H)-one]
< 300 | Cc1nc(NCc2cnn(Cc3ccc(F)cc3C(F)(F)F)c2)nc2c1NC(=O)[C@H](C)N2C [Compound 67, (7S)-2-(((1-(4-fluoro-2-(trifluoromethyl)benzyl)-1H-pyrazol-4-yl)methyl)amino)-4,7,8-trimethyl-7,8-dihydropteridin-6(5H)-one]
< 300 | CCN1C(=O)C(C)(C)N(CC)c2nc(NCc3cnn(Cc4cc(F)c(F)c(F)c4)c3)ncc21 [Compound 231, 5,8-diethyl-7,7-dimethyl-2-(((1-(3,4,5-trifluorobenzyl)-1H-pyrazol-4-yl)methyl)amino)-7,8-dihydropteridin-6(5H)-one]
< 300 | Cc1nc(N[C@H]2C[C@H](N(C)c3cnc(C(F)(F)F)cn3)C2)nc2c1NC(=O)[C@H](C(C)C)N2C [Compound 655, (7S)-7-isopropyl-4,8-dimethyl-2-((trans-3-(methyl(5-(trifluoromethyl)pyrazin-2-yl)amino)cyclobutyl)amino)-7,8-dihydropteridin-6(5H)-one]
< 300 | Cc1nc(NCc2cnn(Cc3ccc(OCC(F)(F)F)nc3)c2)nc2c1NC(=O)[C@H](C)N2C [Compound 390, (7S)-4,7,8-trimethyl-2-(((1-((6-(2,2,2-trifluoroethoxy)pyridin-3-yl)methyl)-1H-pyrazol-4-yl)methyl)amino)-7,8-dihydropteridin-6(5H)-one]
300 to 1000 | Cc1nc(NCc2cnn(Cc3ccnc(Cl)c3)c2)nc2c1NC(=O)[C@H](C)N2C [Compound 185, (7S)-2-(((1-((2-chloropyridin-4-yl)methyl)-1H-pyrazol-4-yl)methyl)amino)-4,7,8-trimethyl-7,8-dihydropteridin-6(5H)-one]
≥ 5000 | Cc1nc(N[C@H]2C[C@H](NC(=O)Cc3ccc(C(F)(F)F)nc3)C2)nc2c1NC(=O)[C@H](C(C)C)N2C [Compound 560, N-(trans-3-(((S)-7-isopropyl-4,8-dimethyl-6-oxo-5,6,7,8-tetrahydropteridin-2-yl)amino)cyclobutyl)-2-(6-(trifluoromethyl)pyridin-3-yl)acetamide]
300 to 1000 | Cc1nc(N[C@H]2C[C@@H](Sc3ccc(C(F)(F)F)cc3)C2)nc2c1NC(=O)[C@H](C)N2C [Compound 321, (7S)-4,7,8-trimethyl-2-((cis-3-((4-(trifluoromethyl)phenyl)thio)cyclobutyl)amino)-7,8-dihydropteridin-6(5H)-one]
≥ 5000 | C[C@H]1C(=O)Nc2cnc(NCc3cnn(Cc4ncc(F)cn4)c3)nc2N1C [Compound 165, (7S)-2-(((1-((5-fluoropyrimidin-2-yl)methyl)-1H-pyrazol-4-yl)methyl)amino)-7,8-dimethyl-7,8-dihydropteridin-6(5H)-one]
< 300 | COC1(C2C(=O)Nc3c(C)nc(N[C@H]4C[C@H](Oc5ccc(C(F)(F)F)nc5)C4)nc3N2C)CCC1 (relative stereo) [Compound 671, 7-(1-methoxycyclobutyl)-4,8-dimethyl-2-((trans-3-((6-(trifluoromethyl)pyridin-3-yl)oxy)cyclobutyl)amino)-7,8-dihydropteridin-6(5H)-one]
< 300 | COC1(C2C(=O)Nc3c(C)nc(N[C@H]4C[C@H](Oc5cnc(C(F)(F)F)nc5)C4)nc3N2C)CCC1 (relative stereo) [Compound 718, 7-(1-methoxycyclobutyl)-4,8-dimethyl-2-((trans-3-((2-(trifluoromethyl)pyrimidin-5-yl)oxy)cyclobutyl)amino)-7,8-dihydropteridin-6(5H)-one]
< 300 | Cc1cc(OC(C)C)ncc1Cn1cc(CNc2nc(C)c3c(n2)N(C)[C@@H](C)C(=O)N3)cn1 [Compound 168, (7S)-2-(((1-((6-isopropoxy-4-methylpyridin-3-yl)methyl)-1H-pyrazol-4-yl)methyl)amino)-4,7,8-trimethyl-7,8-dihydropteridin-6(5H)-one]
< 300 | Cc1nc(NCc2cnn(CCc3cc(F)c(F)c(F)c3)c2)nc2c1NC(=O)[C@H](C)N2C [Compound 123, (7S)-4,7,8-trimethyl-2-(((1-(3,4,5-trifluorophenethyl)-1H-pyrazol-4-yl)methyl)amino)-7,8-dihydropteridin-6(5H)-one]
< 300 | Cc1nc(N[C@H]2C[C@@H](NC(=O)Cc3cc(F)c(F)c(F)c3)C2)nc2c1NC(=O)[C@H](C(C)C)N2C [Compound 514, N-(cis-3-(((S)-7-isopropyl-4,8-dimethyl-6-oxo-5,6,7,8-tetrahydropteridin-2-yl)amino)cyclobutyl)-2-(3,4,5-trifluorophenyl)acetamide]
300 to 1000 | Cc1nc(NCc2cnn(Cc3ccc(C#N)nc3)c2)nc2c1NC(=O)[C@H](C)N2C [Compound 176, (7S)-5-((4-(((4,7,8-trimethyl-6-oxo-5,6,7,8-tetrahydropteridin-2-yl)amino)methyl)-1H-pyrazol-1-yl)methyl)picolinonitrile]
1000 to 5000 | Cc1nc(N[C@H]2C[C@H](Nc3ccc(C(F)(F)F)nn3)C2)nc2c1NC(=O)[C@H](C(C)C)N2C [Compound 555, (S)-7-isopropyl-4,8-dimethyl-2-((trans-3-((6-(trifluoromethyl)pyridazin-3-yl)amino)cyclobutyl)amino)-7,8-dihydropteridin-6(5H)-one]

SMILES | IC50 [nM]
COc1c(F)cc(Cn2cc(CNc3nc(C)c4c(n3)N(C)[C@@H]([C@H](C)OC(C)(C)C)C(=O)N4)cn2)cc1F [Compound 746, (S)-7-((S)-1-(tert-butoxy)ethyl)-2-(((1-(3,5-difluoro-4-methoxybenzyl)-1H-pyrazol-4-yl)methyl)amino)-4,8-dimethyl-7,8-dihydropteridin-6(5H)-one] | 300 to 1000

Same assay, conditions: Homo sapiens, COLO 205, 5 h, Colo 205 cells with stably transfected TCF/LEF luciferase reporter; five hours after addition of compound; read-out: TCF reporter Colo205

IC50 [nM] | SMILES
≥ 5000 | Cc1nc(N(Cc2cnn(Cc3ccc(C(F)(F)F)nc3)c2)C(=O)NC2CCCCC2)nc2c1NC(=O)[C@H](C)N2C [Compound 401, (7S)-3-cyclohexyl-1-((1-((6-(trifluoromethyl)pyridin-3-yl)methyl)-1H-pyrazol-4-yl)methyl)-1-(4,7,8-trimethyl-6-oxo-5,6,7,8-tetrahydropteridin-2-yl)urea]
< 300 | Cc1nc(N(Cc2cnn(Cc3ccc(C(F)(F)F)nc3)c2)C(=O)OC(C)OC(=O)C(C)C)nc2c1NC(=O)[C@H](C)N2C (stereo partly drawn) [Compound 408, 1-((((1-((6-(trifluoromethyl)pyridin-3-yl)methyl)-1H-pyrazol-4-yl)methyl)((7S)-4,7,8-trimethyl-6-oxo-5,6,7,8-tetrahydropteridin-2-yl)carbamoyl)oxy)ethyl isobutyrate]

Same assay, conditions: Homo sapiens, COLO 205, 5 h, R-isomer at C2 (corresponding to C2 S-isomer); Colo 205 TCF/LEF luciferase reporter, 5 h; read-out: TCF reporter Colo205 IC50

IC50 [nM] | SMILES
1000 to 5000 | Cc1nc(NCc2cnn(Cc3ccc(C(F)(F)F)nc3)c2)nc2c1NC(=O)[C@@H](C)N2C [Compound I-1636]

Source: patent publication US20230312587A1, “PTERIDINONE COMPOUNDS AND USES THEREOF” (Vertex Pharmaceutical Incorporated, priority 2018, published 2023)
